Counter-ions that a name gives are not always drawn. Like-named read-outs stand apart in the source and are kept apart here.
Assays:
cardiac microtissues [1] = assay: Transcriptomic profiling (mRNA-seq) and DESeq2 differential gene expression analysis in cardiac microtissues; details: absolute log2(Fold-Change) > 1, FDR p ≤ 0.05
[2] = ref FDA label, cited from earlier work
cardiac microtissues [3] = assay: Ingenuity Pathway Analysis over-representation of differentially expressed genes (activation Z-score); type: cell-based, human; details: 48hr high; Group 2
cardiac microtissues [4] = assay: ATP depletion (CellTiter Glo Luminescent Cell Viability Assay) in cardiac microtissues; type: cell-based, human; details: the concentration is the IC30 of ATP depletion, or cell death caused
Method: Cellular ATP concentrations were also assessed using the CellTiter Glo® Luminescent Cell Viability Assay as per the manufacturer’s instructions (Promega).

cardiac microtissues [5] = assay: Targeted qRT-PCR of ATAD3C, CDH13, IL6, PTX3, SLC7A5, UCHL1 in cardiac microtissues; type: cell-based, human; details: Sorafenib 3.74 µM, Sunitinib 3.53 µM, Dasatinib 10.8 µM; for activity at 3.74 µM: Homo sapiens, read-out: % of control
Method: The experiment was performed with three technical replicates across 1-2 independent replicates.

hiPS-CMs = test system: hiPS-CMs; design: method as in Harmer et al., 2012; details: 10 µM; ref Harmer et al., 2012; cited from earlier work

## CNC(=O)c1cc(Oc2ccc(NC(=O)Nc3ccc(Cl)c(C(F)(F)F)c3)cc2)ccn1 [Sorafenib Tosylate]
Cardiac microtissues [1]; 6 hr, high concentration
  number of significant differentially expressed genes, 6hr high: 13
Cardiac microtissues [1]; 6 hr, low concentration
  number of significant differentially expressed genes, 6hr low: 7
Cardiac microtissues [1]; 48 hr, high concentration
  number of significant differentially expressed genes, 48hr high: 268
Cardiac microtissues [1]; 48 hr, low concentration
  number of significant differentially expressed genes, 48hr low: 150
Cardiac microtissues [1]; 72 hr, high concentration
  number of significant differentially expressed genes, 72hr high: 204
Cardiac microtissues [1]; 72 hr, low concentration
  number of significant differentially expressed genes, 72hr low: 143
[2]; FDA label references heart failure or a decrease in left ventricular ejection fraction
  Structural cardiotoxin?: Y
[2]; compound annotation
  Functional cardiotoxin?: Y
Cardiac microtissues [3]
  activation Z-score: Acute Phase Response Signaling: -1.414
  activation Z-score: Adrenomedullin signaling pathway: 0.447
  activation Z-score: Aryl Hydrocarbon Receptor Signaling: -1.342
  activation Z-score: Breast Cancer Regulation by Stathmin1: -2.111
  activation Z-score: Cardiac Hypertrophy Signaling (Enhanced): -1.387
  activation Z-score: Cell Cycle: G2/M DNA Damage Checkpoint Regulation: -2.236
  activation Z-score: Colorectal Cancer Metastasis Signaling: -1.633
  activation Z-score: Cyclins and Cell Cycle Regulation: 1.342
  activation Z-score: Endothelin-1 Signaling: -2
  activation Z-score: G-Protein Coupled Receptor Signaling: -1.897
  activation Z-score: HIF1Î± Signaling: -0.447
  activation Z-score: HMGB1 Signaling: -1.897
  activation Z-score: Hepatic Fibrosis Signaling Pathway: -2.111
  activation Z-score: IL-6 Signaling: -1.667
  activation Z-score: IL-8 Signaling: -2
  activation Z-score: ILK Signaling: -1
  activation Z-score: Immunogenic Cell Death Signaling Pathway: -1
  activation Z-score: Kinetochore Metaphase Signaling Pathway: 1.886
  activation Z-score: LXR/RXR Activation: 2.333
  activation Z-score: Leukocyte Extravasation Signaling: -2
  activation Z-score: MIF Regulation of Innate Immunity: -2
  activation Z-score: Macrophage Alternative Activation Signaling Pathway: 2.236
  activation Z-score: Osteoarthritis Pathway: -2.714
  activation Z-score: Oxytocin Signaling Pathway: -2.236
  activation Z-score: PPAR Signaling: 2.236
  activation Z-score: Pulmonary Fibrosis Idiopathic Signaling Pathway: -1.897
  activation Z-score: Pulmonary Healing Signaling Pathway: -0.447
  activation Z-score: Pyridoxal 5'-phosphate Salvage Pathway: 2.236
  activation Z-score: Regulation Of The Epithelial Mesenchymal Transition By Growth Factors Pathway: -1.89
  activation Z-score: Ribonucleotide Reductase Signaling Pathway: -0.816
  activation Z-score: Role of IL-17F in Allergic Inflammatory Airway Diseases: -2
  activation Z-score: Role of JAK family kinases in IL-6-type Cytokine Signaling: -1.414
  activation Z-score: Salvage Pathways of Pyrimidine Ribonucleotides: 2.236
  activation Z-score: Senescence Pathway: -1.89
  activation Z-score: Signaling by Rho Family GTPases: -0.447
  activation Z-score: TREM1 Signaling: -2
  activation Z-score: White Adipose Tissue Browning Pathway: 0
  activation Z-score: Wound Healing Signaling Pathway: -2.714
Cardiac microtissues [4]
  Transcriptomic high concentration (µM) = IC30 of ATP depletion: 3.74 µM
Cardiac microtissues [5]; gene ATAD3C, Run 1
  activity at 3.74 µM: 85.7%
  2^-ΔΔCt of Individual reps, Treated 1: 0.8342
  2^-ΔΔCt of Individual reps, Treated 2: 0.8632
  2^-ΔΔCt of Individual reps, Treated 3: 0.8757
  Average 2^-ΔΔCt, Treated: 0.8577
Cardiac microtissues [5]; gene CDH13, Run 1
  activity at 3.74 µM: 74%
  2^-ΔΔCt of Individual reps, Treated 1: 0.6992
  2^-ΔΔCt of Individual reps, Treated 2: 0.7927
  2^-ΔΔCt of Individual reps, Treated 3: 0.7507
  Average 2^-ΔΔCt, Treated: 0.7476
Cardiac microtissues [5]; gene CDH13, Run 2
  activity at 3.74 µM: 113%
  2^-ΔΔCt of Individual reps, Treated 1: 1.515
  2^-ΔΔCt of Individual reps, Treated 2: 1.105
  2^-ΔΔCt of Individual reps, Treated 3: 0.7867
  Average 2^-ΔΔCt, Treated: 1.136
Cardiac microtissues [5]; gene IL6, Run 1
  activity at 3.74 µM: 35.3%
  2^-ΔΔCt of Individual reps, Treated 1: 0.3353
  2^-ΔΔCt of Individual reps, Treated 2: 0.4238
  2^-ΔΔCt of Individual reps, Treated 3: 0.3063
  Average 2^-ΔΔCt, Treated: 0.3551
Cardiac microtissues [5]; gene IL6, Run 2
  activity at 3.74 µM: 6.7%
  2^-ΔΔCt of Individual reps, Treated 1: 0.169
  2^-ΔΔCt of Individual reps, Treated 2: 0.0204
  2^-ΔΔCt of Individual reps, Treated 3: 0.0311
  Average 2^-ΔΔCt, Treated: 0.07349
Cardiac microtissues [5]; gene PTX3, Run 1
  activity at 3.74 µM: 73.7%
  2^-ΔΔCt of Individual reps, Treated 1: 0.6982
  2^-ΔΔCt of Individual reps, Treated 2: 0.8787
  2^-ΔΔCt of Individual reps, Treated 3: 0.6669
  Average 2^-ΔΔCt, Treated: 0.7479
Cardiac microtissues [5]; gene PTX3, Run 2
  activity at 3.74 µM: 74%
  2^-ΔΔCt of Individual reps, Treated 1: 0.9568
  2^-ΔΔCt of Individual reps, Treated 2: 0.4098
  2^-ΔΔCt of Individual reps, Treated 3: 0.8963
  Average 2^-ΔΔCt, Treated: 0.7543
Cardiac microtissues [5]; gene SLC7A5, Run 1
  activity at 3.74 µM: 57%
  2^-ΔΔCt of Individual reps, Treated 1: 0.5608
  2^-ΔΔCt of Individual reps, Treated 2: 0.6339
  2^-ΔΔCt of Individual reps, Treated 3: 0.5348
  Average 2^-ΔΔCt, Treated: 0.5765
Cardiac microtissues [5]; gene SLC7A5, Run 2
  activity at 3.74 µM: 50.2%
  2^-ΔΔCt of Individual reps, Treated 1: 0.6489
  2^-ΔΔCt of Individual reps, Treated 2: 0.4574
  2^-ΔΔCt of Individual reps, Treated 3: 0.4262
  Average 2^-ΔΔCt, Treated: 0.5108
Cardiac microtissues [5]; gene UCHL1, Run 1
  activity at 3.74 µM: 66.2%
  2^-ΔΔCt of Individual reps, Treated 1: 0.6452
  2^-ΔΔCt of Individual reps, Treated 2: 0.6787
  2^-ΔΔCt of Individual reps, Treated 3: 0.6738
  Average 2^-ΔΔCt, Treated: 0.6659
Cardiac microtissues [5]; gene UCHL1, Run 2
  activity at 3.74 µM: 70.9%
  2^-ΔΔCt of Individual reps, Treated 1: 0.8432
  2^-ΔΔCt of Individual reps, Treated 2: 0.6978
  2^-ΔΔCt of Individual reps, Treated 3: 0.5876
  Average 2^-ΔΔCt, Treated: 0.7095

## COc1ccc(CCN(C)CCCC(C#N)(c2ccc(OC)c(OC)c2)C(C)C)cc1OC (stereo not shown) [verapamil]
hiPS-CMs
  inhibition of calcium transient signal in cardiomyocytes: inhibit almost all of the calcium transient signal

Source: article PMC11213733, “Computational approaches identify a transcriptomic fingerprint of drug-induced structural cardiotoxicity” (Cell Biology and Toxicology, 2024)
